Data: the METLIN SMRT retention time set (Domingo-Almenara et al. 2019)

Assay: gradient 5% acetonitrile 3 min, to 50% in 2 min, to 85% in 15 min, held 3 min, 100 µL/min
Conditions: column: Zorbax Extend-C18 2.1 x 50 mm; eluents: water / acetonitrile, 0.1% formic acid
Summary of the method: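 Retention times of pure standards were taken from adduct peaks that were selected by computer and manually inspected. Over 3 months, mixtures of ~100 molecules were run by HPLC–quadrupole time-of-flight mass spectrometry in positive and negative ionization mode. The Zorbax Extend-C18 column (2.1 × 50 mm, 1.8 μm) ran at 100 μL/min in water and acetonitrile, each containing 0.1% formic acid, with 40 μL dead volume and 900 μL dwell volume.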

| Compound | RP-LC retention time [s] |
| --- | --- |
| CN1c2ccc(F)cc2C(=O)NC12CCN(C(=O)c1ccc(F)c(Cl)c1)CC2 | 823 |
| CC(C)N1C(=O)c2cccnc2Sc2cc(NC(=O)c3ccccc3F)ccc21 | 896 |
| O=C(Cn1cnc2nc3c(cc2c1=O)CCCC3)N1CCN(c2ccccc2)CC1 | 748 |
| Cc1ccc(CNC(=O)c2cn(-c3ccc(NC(=O)C4CC4)cn3)cn2)cc1 | 773 |
| O=c1c2sccc2n(Cc2nc(-c3cccc(Br)c3)no2)c(=O)n1-c1ccccc1 | 1050 |
| O=C(Nc1ccc(F)c(F)c1)C1CCN(C(=O)c2ncn3c2COC(c2ccc(F)cc2)C3)CC1 (stereo unspecified) | 852 |
| CCOC(=O)c1c(S(=O)(=O)N2CCC(C(=O)N3CCOCC3)CC2)c(C)n(C)c1C | 674 |
| CCn1cc(-c2ccc(Cl)cc2)cc1C(=O)N1CCC2(CC1)OCCO2 | 1040 |
| CCc1nnc(-c2nnc(NC3CCCCCC3)c3ccccc23)o1 | 821 |
| O=C(Nc1ccc(F)cc1Cl)c1cc2n(n1)CCCC2 | 1010 |
| O=C1C(=O)N(C2CCN(S(=O)(=O)c3ccc(F)c(F)c3)CC2)CCN1Cc1ccccc1 | 827 |
| CCC(CC)NS(=O)(=O)c1cc(-c2[nH]ncc2C(=O)N(C)C)oc1C | 659 |
| COc1ccc(Nc2c(-c3ccc(O)c(OC)c3)nc3nc(C)cc(C)n23)cc1 | 617 |
| O=C(NCCCn1ccnc1)C1CC(=O)N(CCc2c[nH]c3ccc(Cl)cc23)C1 (stereo unspecified) | 603 |
| COc1ccc(S(=O)(=O)NC2CCN(C(=O)c3ccnn3C)CC2)cc1 | 658 |
| O=C(c1cnccn1)N1CCC(c2noc(C3CC3)n2)C1 (stereo unspecified) | 646 |
| Cc1ccc(-c2nc3ccc(C)cn3c2Nc2ccc3c(c2)OCO3)cc1 | 725 |
| CC(NC(=O)C1CCN(c2cncnc2N2CCCC2)CC1)c1ccc(F)cc1 (stereo unspecified) | 648 |
| CCCCNC(=O)c1c(O)c2cccnc2n(-c2cccc(OC)c2)c1=O | 1140 |
| CC1CCCN(S(=O)(=O)c2ccc(-c3nnc(C4CC4)o3)o2)C1 (stereo unspecified) | 940 |
| CCn1c(=O)n(CC)c2cc(S(=O)(=O)c3ccccc3)c(NC(=O)CC(C)C)cc21 | 937 |
| Cc1nc(Nc2ccc(F)cn2)sc1C(=O)NC(C)c1ccc(F)cc1 (stereo unspecified) | 887 |

| Compound | RP-LC retention time [s] |
| --- | --- |
| COc1cccc(CC2C(=O)Nc3ccc(Br)cc32)c1OC (stereo unspecified) | 842 |
| CCOc1ccccc1NC(=O)N1CCC2(C1)C(=O)N(C)c1ccccc12 (stereo unspecified) | 902 |
| O=C(CSc1ncnc2c1[nH]c1ccccc12)N1CCc2ccccc2C1 | 842 |
| CCc1ccccc1NC(=O)C1CCN(S(=O)(=O)c2ccc3c(c2)NC(=O)C(CC)O3)CC1 (stereo unspecified) | 893 |
| O=C(NCCC1CCN(C(=O)Nc2cc(F)cc(F)c2)CC1)c1cccs1 | 861 |
| COc1ccc(NC(=O)CN2CCc3[nH]c4c(F)c(Cl)ccc4c(=O)c3C2)c(OC)c1 | 637 |
| CCN1C(=O)C2(CCN(S(=O)(=O)c3cn(C)cn3)CC2)c2ccccc21 | 724 |
| O=C(CN1CCN(Cc2ccc(F)cc2)C1=O)NCc1ccccc1C(F)(F)F | 866 |
| O=C(Cn1c(Cc2ccccc2)nc2ccccc21)N1CCCCC1 | 667 |
| CCC(=O)NCc1nc2c(n1C)CN(S(=O)(=O)c1cc(F)ccc1F)CC2 | 557 |
| Cc1ccc(N2CC(C(=O)NCC(C)(O)C3CC3)CC2=O)cc1C (stereo unspecified) | 673 |
| CN(C)C(=O)c1cn(C2CN(S(=O)(=O)c3ccc4c(c3)CCC4)C2)nn1 | 774 |
| COC(=O)c1cc(OCC(=O)NC2CCCCC2)c2cc(OC)ccc2n1 | 791 |
| CC(C)n1cc(S(=O)(=O)N2CCN(c3ccccc3F)CC2)c2cccnc21 | 1100 |
| Cc1nnc(N2CCCC(C(=O)NCCc3c[nH]c4ccccc34)C2)c2nn(-c3ccccc3)c(C)c12 (stereo unspecified) | 706 |
| Cc1ccc(-c2ccc(-n3nc(C)c(S(=O)(=O)Nc4ccccc4)c3C)nn2)cc1 | 1060 |
| CC(C)CN1Cc2ccccc2-n2ccnc2C12CCN(C(=O)c1ccn[nH]1)CC2 | 615 |
| Cc1cc(N2CCN(C)CC2)nc2ccc(NC(=S)NC3CCCc4ccccc43)cc12 (stereo unspecified) | 632 |
| CCC(=O)Nc1ccc2c(c1)N(C(=O)c1cccs1)CCC2 | 717 |
| CCCN1C(=O)c2c(C(=O)NCc3ccccc3)ncn2CC1(C)C(=O)NCCC(C)C (stereo unspecified) | 817 |
| COC(=O)c1cc2c(cc1NC(=O)C1CCCN(c3ncnc4c3nc3n4CCCCC3)C1)OCO2 (stereo unspecified) | 943 |
| CCCCn1cc(S(=O)(=O)NCc2cccc(C(F)(F)F)c2)c2cccnc21 | 1050 |

| Compound | RP-LC retention time [s] |
| --- | --- |
| CNC(=O)C1CCCN(c2nc3ncn(CC(=O)Nc4ccc(C(F)(F)F)cc4)c(=O)c3s2)C1 (stereo unspecified) | 711 |
| CCC(=O)N1C[C@@H]2C(=O)N(CCc3ccccc3)C(=O)[C@@H]2C1 | 702 |
| O=C(NC1COc2ccccc2C1)N1CCOCC1 (stereo unspecified) | 660 |
| Cc1ccc(NC(=O)CSc2nnc(NC(=O)c3cc(C4CC4)on3)s2)cc1Cl | 926 |
| Cc1ccc(-c2nc(C)cc(OCC(=O)Nc3ccccc3C)n2)cc1 | 1030 |
| Cc1c2cnn(-c3ccccc3)c(=O)c2c(C)n1C(C)C(=O)NCCCN1CCN(C)CC1 (stereo unspecified) | 581 |
| COCCNc1c(-c2cccc(C)c2)nc2sc(C(=O)NC3CC3)c(C)n12 | 602 |
| CCOc1ccc(NC(=O)c2oc3ccc(C)cc3c2C)c2cccnc12 | 766 |
| COCCN1C(=O)CCc2cc(NS(=O)(=O)c3ccc(F)cc3)ccc21 | 759 |
| O=C(CC1CCN(C(=O)c2cc3cc(Cl)ccc3[nH]2)CC1)NCc1ccco1 | 802 |
| COC(=O)c1c(-c2ccc(Cl)cc2)noc1N1CCN(C(=O)c2ccco2)CC1 | 978 |
| CNC(=O)c1cnn2c3c(cnc12)CCCCCC3 | 831 |
| CN1c2ccc(Cl)cc2C(=O)NC12CCN(C(=O)NC1CCCCC1)CC2 | 818 |
| CC(C)(C)NC(=O)CCc1c(-c2ccccc2)nc2ccccn12 | 632 |
| CC(C)C(=O)NCc1cnn(-c2ccc(C(=O)N(C)Cc3ccco3)cc2)c1 | 696 |
| CCc1nnc(NC(=O)c2ccc3c(c2)c(=O)cc(C)n3CC)s1 | 571 |
| Cc1ccc(Nc2c(-c3ccccc3)nc3cccc(C)n23)cc1 | 757 |
| CCn1c(N2CCC(C(=O)NCCCOC)CC2)cc(=O)n(C)c1=O | 610 |
| Cc1ccc(NC(=O)Cn2ncc3c(c2=O)N(CC2CC2)C(=O)CS3)cc1F | 928 |
| COc1cccc(CNC(=O)C2CCN(S(=O)(=O)c3cn(C)cn3)CC2)c1 | 656 |
| Cc1ccc(NC(=O)Nc2nc(C(=O)N3CCN(C(=O)c4ccco4)CC3)cs2)cc1 | 704 |
| COc1cc(Cl)c(C)cc1N1C=C(C#N)S(=O)(=O)c2ccc(F)cc21 | 972 |
